Experiments:
Format in all cases: cell-based
[1] = tested on: Proteus vulgaris; experiment: MIC against Gram-negative bacteria: Proteus vulgaris; conditions: 5×10^5 CFU/mL; for MIC P. vulgaris: two-fold serial dilution
Outline: (§1)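 Two-fold serial dilutions of each purified human EGF domain protein, three replicate wells per level, were combined with bacteria at a final 5×10^5 CFU/mL in LB. Cultures were shaken at 175 rpm, 37° C. The MIC was taken as the minimum concentration preventing growth.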

[2] = tested on: Moraxella catarrhalis; experiment: MIC against Gram-negative bacteria: Moraxella catarrhalis; conditions: 5×10^5 CFU/mL; for MIC M. catarrhalis: two-fold serial dilution
Outline: as §1

[3] = tested on: E. coli DH5α; experiment: Antibacterial activity: MIC and growth curve against E. coli DH5α in 96-well plate; conditions: minimal inhibitory concentration against E. coli DH5α; 96-well plate, 5×10^5 CFU/mL, 37° C., judged after 8 h
Outline: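 Log-phase bacteria (OD600 ~0.5) resuspended in LB at 5×10^5 CFU/mL, exposed to recombinant protein at 50, 25, 12.5 μg/mL final in triplicate, 37 °C shaking at 175 rpm. OD600 read every 30 min; MIC is lowest concentration showing no growth.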

[4] = tested on: E. coli BL21; experiment: MIC against Gram-negative bacteria: E. coli BL21; conditions: 5×10^5 CFU/mL; for MIC E. coli BL21: two-fold serial dilution
Outline: as §1

[5] = tested on: Enterobacter cloacae; experiment: MIC against Gram-negative bacteria: Enterobacter cloacae; conditions: 5×10^5 CFU/mL; for MIC E. cloacae: two-fold serial dilution
Outline: as §1

[6] = tested on: Pseudomonas aeruginosa; experiment: MIC against Gram-negative bacteria: Pseudomonas aeruginosa; conditions: 5×10^5 CFU/mL; for MIC P. aeruginosa: two-fold serial dilution
Outline: as §1

[7] = tested on: Citrobacter diversus; experiment: MIC against Gram-negative bacteria: Citrobacter diversus; conditions: 5×10^5 CFU/mL; for MIC C. diversus: two-fold serial dilution
Outline: as §1

[8] = tested on: Proteus mirabilis; experiment: MIC against Gram-negative bacteria: Proteus mirabilis; conditions: 5×10^5 CFU/mL; for MIC P. mirabilis: two-fold serial dilution
Outline: as §1

[9] = tested on: Klebsiella pneumonia; experiment: MIC against Gram-negative bacteria: Klebsiella pneumonia; conditions: 5×10^5 CFU/mL; for MIC K. pneumonia: two-fold serial dilution
Outline: as §1

[10] = tested on: Aeromonas hydrophila; experiment: MIC against Gram-negative bacteria: Aeromonas hydrophila; conditions: 5×10^5 CFU/mL; for MIC A. hydrophila: two-fold serial dilution
Outline: as §1

[11] = tested on: Serratia marcescens; experiment: MIC against Gram-negative bacteria: Serratia marcescens; conditions: 5×10^5 CFU/mL; for MIC S. marcescens: two-fold serial dilution
Outline: as §1

[12] = Proteus vulgaris, 96-well plate, 37° C., 10 h
[13] = Moraxella catarrhalis, 96-well plate, 37° C., 10 h
[14] = E. coli BL21, 96-well plate, 37° C., 10 h
[15] = Enterobacter cloacae, 96-well plate, 37° C., 10 h
[16] = Pseudomonas aeruginosa, 96-well plate, 37° C., 10 h
[17] = Citrobacter diversus, 96-well plate, 37° C., 10 h
[18] = Proteus mirabilis, 96-well plate, 37° C., 10 h
[19] = Klebsiella pneumonia, 96-well plate, 37° C., 10 h
[20] = Aeromonas hydrophila, 96-well plate, 37° C., 10 h
[21] = Serratia marcescens, 96-well plate, 37° C., 10 h

PRT1070 (RPGTCNLQCFNGGSCFLNARRQPKCRCQPRYTGDKCE; listed as Homo sapiens)
12.5 µg/mL: MIC P. vulgaris ([1]; 10 h cultivation at 37° C.) | MIC M. catarrhalis ([2]; 10 h cultivation at 37° C.) | MIC E. coli BL21 ([4]; 10 h cultivation at 37° C.) | MIC C. diversus ([7]; 10 h cultivation at 37° C.) | MIC P. mirabilis ([8]; 10 h cultivation at 37° C.) | MIC K. pneumonia ([9]; 10 h cultivation at 37° C.) | MIC A. hydrophila ([10]; 10 h cultivation at 37° C.) | MIC S. marcescens ([11]; 10 h cultivation at 37° C.)
25 µg/mL: MIC [3] | MIC E. cloacae ([5]; 10 h cultivation at 37° C.) | MIC P. aeruginosa ([6]; 10 h cultivation at 37° C.)

PRT75 (DDNICLREPCENYMRCVSVLRFDSSAPFIASSSVLFRPIHPVGGLRCRCPPGFTGDYCE; listed as Homo sapiens)
12.5 µg/mL: MIC (μg/mL) P. vulgaris [1, 12] | MIC (μg/mL) M. catarrhalis [2, 13] | MIC (μg/mL) P. aeruginosa [6, 16] | MIC (μg/mL) C. diversus [7, 17] | MIC (μg/mL) P. mirabilis [8, 18] | MIC (μg/mL) A. hydrophila [10, 20] | MIC (μg/mL) S. marcescens [11, 21]
50 µg/mL: MIC [3] | MIC (μg/mL) E. cloacae [5, 15]
25 µg/mL: MIC (μg/mL) E. coli BL21 [4, 14] | MIC (μg/mL) K. pneumonia [9, 19]

PRT1180 (DIDYCEPNPCQNGAQCYNRASDYFCKCPEDYEGKNCS; listed as Homo sapiens)
12.5 µg/mL: MIC M. catarrhalis ([2]; 10 h cultivation at 37° C.) | MIC E. coli BL21 ([4]; 10 h cultivation at 37° C.) | MIC E. cloacae ([5]; 10 h cultivation at 37° C.)
25 µg/mL: MIC C. diversus ([7]; 10 h cultivation at 37° C.) | MIC P. mirabilis ([8]; 10 h cultivation at 37° C.) | MIC K. pneumonia ([9]; 10 h cultivation at 37° C.) | MIC S. marcescens ([11]; 10 h cultivation at 37° C.)
50 µg/mL: MIC P. vulgaris ([1]; 10 h cultivation at 37° C.) | MIC [3] | MIC P. aeruginosa ([6]; 10 h cultivation at 37° C.) | MIC A. hydrophila ([10]; 10 h cultivation at 37° C.)

PRT798 (FGQDCAQLCSCANNGTCSPIDGSCQCFPGWIGKDCS; listed as Homo sapiens)
12.5 µg/mL: MIC [3] | MIC (μg/mL) E. cloacae ([5]; E. cloacae, 10 h cultivation at 37° C.) | MIC (μg/mL) P. aeruginosa ([6]; P. aeruginosa, 10 h cultivation at 37° C.) | MIC (μg/mL) C. diversus ([7]; C. diversus, 10 h cultivation at 37° C.) | MIC (μg/mL) P. mirabilis ([8]; P. mirabilis, 10 h cultivation at 37° C.)
50 µg/mL: MIC (μg/mL) P. vulgaris ([1]; P. vulgaris, 10 h cultivation at 37° C.) | MIC (μg/mL) M. catarrhalis ([2]; M. catarrhalis, 10 h cultivation at 37° C.) | MIC (μg/mL) K. pneumonia ([9]; K. pneumonia, 10 h cultivation at 37° C.) | MIC (μg/mL) A. hydrophila ([10]; A. hydrophila, 10 h cultivation at 37° C.)
25 µg/mL: MIC (μg/mL) E. coli BL21 ([4]; E. coli BL21, 10 h cultivation at 37° C.) | MIC (μg/mL) S. marcescens ([11]; S. marcescens, 10 h cultivation at 37° C.)

PRT1263 (DVDECAQGLDDCHADALCQNTPTSYKCSCKPGYQGEGRQCE; listed as Homo sapiens)
12.5 µg/mL: MIC against P. vulgaris [1, 12] | MIC against M. catarrhalis [2, 13] | MIC against P. aeruginosa [6, 16] | MIC against A. hydrophila [10, 20]
50 µg/mL: MIC against E. coli BL21 [4, 14] | MIC against E. cloacae [5, 15] | MIC against C. diversus [7, 17] | MIC against P. mirabilis [8, 18] | MIC against S. marcescens [11, 21]
25 µg/mL: MIC against K. pneumonia [9, 19]
100 µg/mL: MIC [3]

— patent US9833497B2, “Human originated EGF domain proteins and use of the same” (CHENGDU SOURCEBIO LIMITED-LIABILITY COMPANY, priority 2013, dated 2017)
